The values below come from EP0286316A1, “1,2,4-Trioxane Derivatives” (Jefford, Charles W., priority 1987, dated 1988).

The subject of assay [1] is Plasmodium falciparum chloroquine-resistant clone: Indochina-W2 (IndCh-W2). Nature of the assay: in vitro anti-malarial activity, semiautomated microdilution technique, chloroquine-resistant clone. It counts as cell-based. The conditions noted are these: for I-QHS: index of activity (IC50) relative to Qinghaosu under the same conditions; for I-CHLQ: index of activity (IC50) relative to chloroquine under the same conditions. An excerpt: (§1) Determination of anti-malarial activity of the compounds was effected according to the methods published by R E Desjardins et al and W K Milhous et al (Desjardins, R.E., C.J. Cranfield, D.E. Haynes, and J.D. Chulay. 1979. Quantitative assessment of anitmalarial activity in vitro by a semiautomated microdilution technique. Antimicrob. Agents Chemother. 16:710-718. Milhous, W.K., N.F. Weatherley, J.H. Bowdre, and R.E. Desjardins. 1985. In vitro activities of and mechanisms of resistance to antifol antimalarials. Antimicrob. Agents Chemother. 27:525-530). For such determinations, the following clones of Plasmodium falciparum were used: chloroquine-resistant clone: Indochina-W2 (IndCh-W2) chloroquine-sensitive clone: Sierra Leone-D6 (SL-D6) The activity measured was then compared as indexes under the same conditions to the activity of Qinghaosu (I-QHS) and chloroquine (I-CHLQ), respectively. The indexes (I) provide a measure of the activity of the 1,2,4-trioxane derivatives tested in relation to the activity of the known anti-malarial substances.
Background: Dilution methods test growth across graded concentrations, often in twofold steps.

For assay [2], the system named is Plasmodium falciparum chloroquine-sensitive clone: Sierra Leone-D6 (SL-D6). Nature of the assay: in vitro anti-malarial activity, semiautomated microdilution technique, chloroquine-sensitive clone. It counts as cell-based. The conditions noted are these: clone S6-D6; for I-QHS: index of activity (IC50) relative to Qinghaosu under the same conditions; for I-CHLQ: index of activity (IC50) relative to chloroquine under the same conditions.
Text: as §1

Assay [3] deals with mixed lymphocyte reaction. Nature of the assay: immunomodulatory activity (in vitro mitogenic assay; mixed lymphocyte reaction). It counts as cell-based. Here is the method: Several of the compounds mentioned in Examples 1 to 17 were also tested for immunomodulatory activity (in vitro mitogenic assay; mixed lymphocyte reaction).
The subject of assay [4] is mefloquine-resistant clones of Plasmodium falciparum (MEF-W2). Nature of the assay: in vitro anti-malarial activity, mefloquine-resistant clones. It counts as cell-based. The conditions noted are these: index of activity (IC50) relative to Qinghaosu; clone MEF-W2.
Text: as §1
Certain derivatives of 1,2,4-trioxane listed below were tested against mefloquine-resistant clones of Plasmodium falciparum (MEF-W2), according to the method previously cited.

In assay [5] the test system is chloroquine-resistant strains of P. falciparum. The conditions noted are these: cited from earlier work.

In the case of `O=C1CCC2(CC1)OO[C@]1(c3ccccc3)CC(c3ccccc3)=C[C@@H]1O2` (racemic) [Compound 17], the I-QHS came to 2.1 in assay [1] and 1.06 in assay [2].
In the case of `O[C@@H]1C(c2ccccc2)=C[C@@]2(c3ccccc3)OOC3(CCCCC3)O[C@@H]12` [Compound 16], the I-QHS is on record as 1.6 in assay [1] and 0.49 in assay [2].
Turning to `C1=C(c2ccccc2)C[C@@]2(c3ccccc3)OOC3(CCOCC3)O[C@@H]12` [Compound 12], the immunomodulatory activity result in assay [3] is “most important activity”. In assay [1], this molecule came in with an I-QHS of 18.7 and an I-CHLQ of 295.3. Further, in assay [2], the I-QHS is recorded as 1.10 and the I-CHLQ stood at 0.67.
With `CC(C)OC(=O)O[C@@H]1C(c2ccccc2)=C[C@@]2(c3ccccc3)OOC(C)(C)O[C@@H]12` [Compound 8], the figures for the I-QHS in assay [1] and in assay [2] were 0.10 and 0.16, respectively. The I-CHLQ in assay [1] worked out at 4.2; in assay [2], 0.18.
For the molecule `CC1(C)OO[C@]2(c3ccccc3)CC(c3ccccc3)=C[C@@H]2O1` [Compound 1], the I-QHS amounted to 0.13 in assay [1], 0.18 in assay [2] and 0.15 in assay [4]. For the same molecule, the I-CHLQ in assay [1] stood at 5.7; in assay [2], 0.20.
On to `CCOC(=O)CCCC1(C)OO[C@]2(c3ccccc3)CC(c3ccccc3)=C[C@@H]2O1` (stereo partly drawn) [Compound 18], for which the I-QHS in assay [1] amounted to 0.09; in assay [2], 0.28.
In assay [1], `CC1(C)OO[C@]2(c3ccccc3)C=C(c3ccccc3)C(=O)[C@@H]2O1` [Compound 9] returned an I-QHS of 0.08 and an I-CHLQ of 3.5. Further, in assay [2], the I-QHS was found to be 0.20 and the I-CHLQ is given as 0.21.
On the same counts, the results for `CC(C)CC(=O)O[C@@H]1C(c2ccccc2)=C[C@@]2(c3ccccc3)OOC(C)(C)O[C@@H]12` [Compound 10] are 0.04, 1.7, 0.09 and 0.10.
As for `CCC1(C)OO[C@]2(c3ccccc3)CC(c3ccccc3)=C[C@@H]2O1` (stereo partly drawn) [Compound 21], the values for the I-QHS in assay [1] and in assay [2] were 0.075 and 0.36, respectively.
For the molecule `C1=C(c2ccccc2)C[C@@]2(c3ccccc3)OOC3(CCCC3)O[C@@H]12` [Compound 4], the I-QHS in assay [1] amounted to 2.1; in assay [2], 0.79. Moreover, the I-CHLQ in assay [1] worked out at 12.2; in assay [2], 0.82.
Consider `O=C1C(c2ccccc2)=C[C@@]2(c3ccccc3)OOC3(CCCCC3)O[C@@H]12` [Compound 15], for which the I-QHS worked out at 3.5 in assay [1] and 1.93 in assay [2].
In assay [1], `O[C@@H]1C(c2ccccc2)=C[C@@]2(c3ccccc3)OOC3(CCCC3)O[C@@H]12` [Compound 11] registered an I-QHS of 4.7 and an I-CHLQ of 73.8. In assay [2], the I-QHS is 1.85 and the I-CHLQ is listed as 1.16.
In assay [1], `CC1(C)OO[C@]2(c3ccccc3)C=C(c3ccccc3)[C@@H](OC(=O)c3ccccc3F)[C@@H]2O1` [Compound 7] came in with an I-QHS of 0.04 and an I-CHLQ of 1.6. In addition, in assay [2], the I-QHS is given as 0.05 and the I-CHLQ worked out at 0.06.
In assay [1], `OO[C@@H]1C(c2ccccc2)=C[C@@]2(c3ccccc3)OOC3(CCCCC3)O[C@@H]12` [Compound 13] gave an I-QHS of 2.2 and an I-CHLQ of 33.9. In assay [2], this molecule gave an I-QHS of 1.47 and an I-CHLQ of 0.93.
On the same counts, the results for `C1=C(c2ccccc2)C[C@@]2(c3ccccc3)OOC3(CCCCC3)O[C@@H]12` [Compound 5] are 0.26, 1.5, 0.20 and 0.20.
In the case of `C[C@@H]1CC[C@H]2[C@@H](C)C(=O)O[C@@H]3O[C@@]4(C)CC[C@@H]1[C@]32OO4` [Qinghaosu], the “activity against chloroquine-resistant strains of P. falciparum” value in assay [5] is on record as “remarkably active”.
Consider `CC1(C)OO[C@]2(c3ccccc3)C=C(c3ccccc3)[C@@H](O)[C@@H]2O1` [Compound 2], for which the I-QHS in assay [1] is recorded as 0.12; in assay [2], 0.25; in assay [4] it was 0.10. The values for the I-CHLQ in assay [1] and in assay [2] were 5.4 and 0.27, respectively.
Consider `C1=C(c2ccccc2)C[C@@]2(c3ccccc3)OOC3(CCC4(CC3)OCCO4)O[C@@H]12` (racemic) [Compound 20], for which the values for the I-QHS in assay [1] and in assay [2] were 0.67 and 0.39, respectively.
